In ChEMBL document CHEMBL1833947, “Synthesis and biological investigation of potential atypical antipsychotics with a tropane core. Part 1” (Eur J Med Chem, 2011):
The source made the active and inactive calls. No cut-off for these calls is given here.

Legend:
[1] = target: T1, 5-hydroxytryptamine receptor 1A (Rattus norvegicus, UniProt P19327); experiment: Displacement of [3H]8OH-DPAT from 5HT1A in rat brain cerebral cortex after 15 mins by scintillation counting; type: tissue-based
T1 sequence (P19327 whole entry): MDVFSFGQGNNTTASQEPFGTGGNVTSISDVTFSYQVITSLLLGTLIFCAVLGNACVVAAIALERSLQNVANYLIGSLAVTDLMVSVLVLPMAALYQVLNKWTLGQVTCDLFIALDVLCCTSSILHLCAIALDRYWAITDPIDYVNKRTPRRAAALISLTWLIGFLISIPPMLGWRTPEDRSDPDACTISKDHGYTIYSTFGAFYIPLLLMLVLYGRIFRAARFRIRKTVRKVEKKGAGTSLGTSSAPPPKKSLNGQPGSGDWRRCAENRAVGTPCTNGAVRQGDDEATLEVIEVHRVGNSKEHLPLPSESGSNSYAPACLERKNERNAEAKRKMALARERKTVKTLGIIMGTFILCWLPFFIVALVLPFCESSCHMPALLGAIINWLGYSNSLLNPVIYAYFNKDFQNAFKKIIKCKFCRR

[2] = target: 5-hydroxytryptamine receptor 2A (Rattus norvegicus, UniProt P14842); experiment: Displacement of [3H]ketanserin from 5HT2A in rat brain cerebral cortex after 20 mins by scintillation counting; type: tissue-based
[3] = target: D(2) dopamine receptor (Rattus norvegicus, UniProt P61169); experiment: Displacement of [3H]spiperone from dopamine D2 receptor in rat striatum tissue after 20 mins by scintillation counting; type: tissue-based
[4] = tested on: Mus musculus; experiment: Antipsychotic activity in mouse assessed as reversal of apomorphine-induced mesh climbing response at 10 mg/kg, ip administered 10 mins prior to apomorphine challenge measured after 40 mins; type: functional, organism-based; design: dose 10 mg/kg
[5] = tested on: Mus musculus; experiment: Antipsychotic activity in mouse assessed as reversal of DOI-induced head twitches at 5 mg/kg, ip administered 30 mins before DOI challenge; type: functional; details: route intraperitoneal
[6] = tested on: Mus musculus; experiment: Antipsychotic activity in mouse assessed as reversal of DOI-induced head twitches at 10 mg/kg, ip administered 30 mins before DOI challenge; type: functional; details: route intraperitoneal
[7] = tested on: Mus musculus; experiment: Antipsychotic activity in mouse assessed as reversal of DOI-induced head twitches at 20 mg/kg, ip administered 30 mins before DOI challenge; type: functional; details: route intraperitoneal
[8] = tested on: Mus musculus; experiment: Antipsychotic activity in mouse assessed as reversal of apomorphine-induced mesh climbing response at 50 mg/kg, ip administered 20 mins prior to apomorphine challenge measured after 120 mins
[9] = tested on: Mus musculus; experiment: Antipsychotic activity in mouse assessed as reversal of apomorphine-induced mesh climbing response at 2.5 mg/kg, ip administered 10 mins prior to apomorphine challenge measured after 50 mins; type: functional, organism-based; design: dose 2.5 mg/kg
[10] = tested on: Mus musculus; experiment: Antipsychotic activity in mouse assessed as reversal of apomorphine-induced mesh climbing response at 2.5 mg/kg, ip administered 10 mins prior to apomorphine challenge measured after 10 mins; type: functional, organism-based; design: dose 2.5 mg/kg
[11] = tested on: Mus musculus; experiment: Antipsychotic activity in mouse assessed as reversal of apomorphine-induced mesh climbing response at 2.5 mg/kg, ip administered 10 mins prior to apomorphine challenge measured after 20 mins; type: functional, organism-based; design: dose 2.5 mg/kg
[12] = tested on: Mus musculus; experiment: Antipsychotic activity in mouse assessed as reversal of apomorphine-induced mesh climbing response at 2.5 mg/kg, ip administered 10 mins prior to apomorphine challenge measured after 30 mins; type: functional, organism-based; design: dose 2.5 mg/kg
[13] = tested on: Mus musculus; experiment: Antipsychotic activity in mouse assessed as reversal of apomorphine-induced mesh climbing response at 2.5 mg/kg, ip administered 10 mins prior to apomorphine challenge measured after 60 mins; type: functional, organism-based; design: dose 2.5 mg/kg

Chain of 5-hydroxytryptamine receptor 2A (P14842 whole entry): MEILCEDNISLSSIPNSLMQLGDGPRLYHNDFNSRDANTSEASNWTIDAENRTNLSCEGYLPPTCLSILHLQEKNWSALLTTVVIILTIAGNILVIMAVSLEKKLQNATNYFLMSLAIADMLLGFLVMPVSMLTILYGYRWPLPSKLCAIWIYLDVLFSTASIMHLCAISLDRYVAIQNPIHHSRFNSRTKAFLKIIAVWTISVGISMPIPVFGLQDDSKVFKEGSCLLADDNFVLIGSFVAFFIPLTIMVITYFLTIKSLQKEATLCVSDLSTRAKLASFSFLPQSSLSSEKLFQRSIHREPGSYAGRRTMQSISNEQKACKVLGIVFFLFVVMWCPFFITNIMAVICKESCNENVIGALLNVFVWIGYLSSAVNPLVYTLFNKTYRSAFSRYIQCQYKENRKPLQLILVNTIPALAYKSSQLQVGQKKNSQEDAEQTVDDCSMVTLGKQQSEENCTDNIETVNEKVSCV
Chain of D(2) dopamine receptor (P61169 whole entry): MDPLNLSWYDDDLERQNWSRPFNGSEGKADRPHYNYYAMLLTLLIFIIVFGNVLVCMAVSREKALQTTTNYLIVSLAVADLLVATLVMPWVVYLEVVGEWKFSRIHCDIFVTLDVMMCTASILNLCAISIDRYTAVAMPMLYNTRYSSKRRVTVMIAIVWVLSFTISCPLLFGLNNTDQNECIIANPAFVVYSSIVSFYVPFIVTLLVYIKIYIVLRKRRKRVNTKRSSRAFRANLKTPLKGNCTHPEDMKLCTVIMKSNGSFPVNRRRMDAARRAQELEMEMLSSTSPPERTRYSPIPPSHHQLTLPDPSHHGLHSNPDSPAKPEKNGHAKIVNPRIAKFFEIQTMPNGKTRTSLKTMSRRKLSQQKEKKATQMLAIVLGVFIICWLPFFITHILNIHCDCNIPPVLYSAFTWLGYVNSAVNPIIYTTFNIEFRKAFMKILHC

SMILES | Ki [1] [µM] | Ki [2] [nM] | Ki [3] [nM] | also measured
COc1cc(Cl)ccc1C(=O)N[C@H]1CC2CC[C@H](C1)N2Cc1ccco1 (single isomer, unassigned) | 2.1 | 682 | 174 | Activity [4]: inactive; Activity [5]: 40%; Activity [6]: 40%; Activity [7]: 45%; Activity [8]: Active
COc1cccc(C(=O)N[C@@H]2CC3CC[C@H](C2)N3Cc2ccco2)c1OC (single isomer, unassigned; 4b) | 3 | 745 | 26.3 | Activity [5]: 33%; Activity [6]: 28%; Activity [7]: 47%
O=C(N[C@@H]1CC2CC[C@H](C1)N2CC1CCCO1)c1ccc2ccccc2c1 (single isomer, unassigned) | 3.3 | 12.3 | 1200 | Activity [5]: 26%; Activity [6]: 63%; Activity [7]: 73%; Activity [8]: Active
O=C(N[C@H]1CC2CC[C@H](C1)N2CC1CCCO1)c1ccccc1 (single isomer, unassigned) | 10.2 | 3100 | > 100000 | –
COc1ccc(F)cc1C(=O)N[C@H]1C[C@H]2CC[C@@H](C1)N2Cc1ccco1 (stereo in doubt; 14b) | > 100 | 7000 | 44000 | –
COc1ccc(F)cc1C(=O)N[C@H]1CC2CC[C@H](C1)N2Cc1ccco1 (single isomer, unassigned) | 17.2 | 1400 | 507 | –
CN1CCc2cccc3c2[C@H]1Cc1ccc(O)c(O)c1-3 | – | – | – | Activity [9]: inactive; Activity [10]: inactive; Activity [11]: inactive; Activity [12]: inactive; Activity [13]: inactive
O=C(N[C@H]1CC2CC[C@H](C1)N2Cc1ccco1)c1cccc2ccccc12 (single isomer, unassigned) | 7.1 | 2300 | 66700 | –
O=C(N[C@H]1CC2CC[C@H](C1)N2Cc1ccco1)c1ccc(Cl)cc1[N+](=O)[O-] (single isomer, unassigned) | 16 | 32000 | 19000 | –
COc1ccc(Cl)cc1C(=O)N[C@@H]1CC2CC[C@H](C1)N2CC1CCCO1 (single isomer, unassigned) | 4.6 | 120 | 2400 | –
COc1cccc(C(=O)N[C@@H]2CC3CC[C@H](C2)N3Cc2ccncc2)c1OC (single isomer, unassigned) | 2.5 | 700 | 28.3 | –
COc1cccc(C(=O)N[C@@H]2CC3CC[C@H](C2)N3Cc2ccccn2)c1OC (single isomer, unassigned) | 1.4 | 1000 | 9.3 | –
COc1ccc(C(=O)N[C@H]2CC3CC[C@H](C2)N3Cc2ccco2)cc1OC (single isomer, unassigned) | 57.3 | 7900 | 68800 | –
